Reference: article PMC4042160, “In silico, in vitro and cellular analysis with a kinome-wide inhibitor panel correlates cellular LRRK2 dephosphorylation to inhibitor activity on LRRK2” (Frontiers in Molecular Neuroscience, 2014)

Tests used:
[1] = molecular target: T1, GST-tagged truncated LRRK2 containing residues 970 to 2527 (Homo sapiens, UniProt Q5S007); experiment: In vitro LRRKtide peptide-substrate kinase assay, single dose testing (10 μM); type: biochemical; conditions: LRRKtide assay @ 10 μM inhibitor; GST-LRRK2 970-2527; 10 μM ATP; mean, N = 3; solvent control = 100%
T1 construct: GST-tagged truncated LRRK2 containing residues 970 to 2527 (Life Technologies); purchased Life Technologies
T1 sequence (Q5S007 970-2527): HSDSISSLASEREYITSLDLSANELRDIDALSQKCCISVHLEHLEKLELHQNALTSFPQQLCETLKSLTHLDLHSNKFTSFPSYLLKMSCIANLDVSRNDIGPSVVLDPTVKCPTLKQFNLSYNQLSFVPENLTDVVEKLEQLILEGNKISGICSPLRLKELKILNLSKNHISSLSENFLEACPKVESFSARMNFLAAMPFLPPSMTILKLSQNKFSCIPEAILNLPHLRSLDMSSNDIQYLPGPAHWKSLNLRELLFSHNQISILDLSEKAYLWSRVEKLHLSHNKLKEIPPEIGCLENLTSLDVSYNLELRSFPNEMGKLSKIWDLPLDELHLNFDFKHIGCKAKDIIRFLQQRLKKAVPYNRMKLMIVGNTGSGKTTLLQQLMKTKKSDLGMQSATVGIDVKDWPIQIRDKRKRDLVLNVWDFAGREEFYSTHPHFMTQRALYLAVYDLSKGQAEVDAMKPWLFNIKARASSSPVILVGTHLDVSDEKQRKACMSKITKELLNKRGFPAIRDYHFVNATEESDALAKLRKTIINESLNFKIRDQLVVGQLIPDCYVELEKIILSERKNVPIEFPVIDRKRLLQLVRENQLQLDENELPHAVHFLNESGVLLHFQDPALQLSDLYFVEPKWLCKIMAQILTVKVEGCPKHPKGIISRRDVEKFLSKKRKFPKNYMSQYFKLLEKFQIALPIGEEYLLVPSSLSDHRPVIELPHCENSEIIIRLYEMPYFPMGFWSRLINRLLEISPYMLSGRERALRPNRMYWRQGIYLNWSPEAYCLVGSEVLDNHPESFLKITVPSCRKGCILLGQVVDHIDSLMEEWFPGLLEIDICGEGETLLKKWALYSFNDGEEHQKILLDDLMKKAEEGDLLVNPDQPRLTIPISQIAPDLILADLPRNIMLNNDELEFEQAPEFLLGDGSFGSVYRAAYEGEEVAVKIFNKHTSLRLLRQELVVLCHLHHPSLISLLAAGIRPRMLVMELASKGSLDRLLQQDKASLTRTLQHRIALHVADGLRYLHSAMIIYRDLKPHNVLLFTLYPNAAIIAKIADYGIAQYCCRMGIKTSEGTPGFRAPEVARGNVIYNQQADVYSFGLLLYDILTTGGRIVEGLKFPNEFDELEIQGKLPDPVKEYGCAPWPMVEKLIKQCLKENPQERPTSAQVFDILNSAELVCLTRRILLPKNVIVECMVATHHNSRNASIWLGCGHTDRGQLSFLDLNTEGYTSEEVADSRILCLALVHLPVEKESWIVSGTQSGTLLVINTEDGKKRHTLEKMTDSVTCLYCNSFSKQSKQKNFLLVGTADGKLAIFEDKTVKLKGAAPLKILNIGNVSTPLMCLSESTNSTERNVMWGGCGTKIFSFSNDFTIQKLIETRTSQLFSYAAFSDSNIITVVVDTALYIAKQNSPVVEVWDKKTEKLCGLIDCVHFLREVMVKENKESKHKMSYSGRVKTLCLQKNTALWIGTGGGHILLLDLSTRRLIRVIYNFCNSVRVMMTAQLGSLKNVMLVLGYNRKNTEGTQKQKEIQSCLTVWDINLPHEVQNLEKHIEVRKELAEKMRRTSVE

LRRK2 phospho-Ser935 = molecular target: T2, LRRK2 phospho-Ser935 (Homo sapiens, UniProt Q5S007); experiment: Cellular LRRK2 phosphoserine 935 dephosphorylation spotblot assay in SH-SY5Y cells stably expressing 3xFlag-LRRK2; type: cell-based; conditions: @ 5 μM for 2 h; SH-SY5Y stably expressing LRRK2; pS935/total LRRK2
T2 construct: expressed in transfected cells
T2 sequence (Q5S007 whole entry): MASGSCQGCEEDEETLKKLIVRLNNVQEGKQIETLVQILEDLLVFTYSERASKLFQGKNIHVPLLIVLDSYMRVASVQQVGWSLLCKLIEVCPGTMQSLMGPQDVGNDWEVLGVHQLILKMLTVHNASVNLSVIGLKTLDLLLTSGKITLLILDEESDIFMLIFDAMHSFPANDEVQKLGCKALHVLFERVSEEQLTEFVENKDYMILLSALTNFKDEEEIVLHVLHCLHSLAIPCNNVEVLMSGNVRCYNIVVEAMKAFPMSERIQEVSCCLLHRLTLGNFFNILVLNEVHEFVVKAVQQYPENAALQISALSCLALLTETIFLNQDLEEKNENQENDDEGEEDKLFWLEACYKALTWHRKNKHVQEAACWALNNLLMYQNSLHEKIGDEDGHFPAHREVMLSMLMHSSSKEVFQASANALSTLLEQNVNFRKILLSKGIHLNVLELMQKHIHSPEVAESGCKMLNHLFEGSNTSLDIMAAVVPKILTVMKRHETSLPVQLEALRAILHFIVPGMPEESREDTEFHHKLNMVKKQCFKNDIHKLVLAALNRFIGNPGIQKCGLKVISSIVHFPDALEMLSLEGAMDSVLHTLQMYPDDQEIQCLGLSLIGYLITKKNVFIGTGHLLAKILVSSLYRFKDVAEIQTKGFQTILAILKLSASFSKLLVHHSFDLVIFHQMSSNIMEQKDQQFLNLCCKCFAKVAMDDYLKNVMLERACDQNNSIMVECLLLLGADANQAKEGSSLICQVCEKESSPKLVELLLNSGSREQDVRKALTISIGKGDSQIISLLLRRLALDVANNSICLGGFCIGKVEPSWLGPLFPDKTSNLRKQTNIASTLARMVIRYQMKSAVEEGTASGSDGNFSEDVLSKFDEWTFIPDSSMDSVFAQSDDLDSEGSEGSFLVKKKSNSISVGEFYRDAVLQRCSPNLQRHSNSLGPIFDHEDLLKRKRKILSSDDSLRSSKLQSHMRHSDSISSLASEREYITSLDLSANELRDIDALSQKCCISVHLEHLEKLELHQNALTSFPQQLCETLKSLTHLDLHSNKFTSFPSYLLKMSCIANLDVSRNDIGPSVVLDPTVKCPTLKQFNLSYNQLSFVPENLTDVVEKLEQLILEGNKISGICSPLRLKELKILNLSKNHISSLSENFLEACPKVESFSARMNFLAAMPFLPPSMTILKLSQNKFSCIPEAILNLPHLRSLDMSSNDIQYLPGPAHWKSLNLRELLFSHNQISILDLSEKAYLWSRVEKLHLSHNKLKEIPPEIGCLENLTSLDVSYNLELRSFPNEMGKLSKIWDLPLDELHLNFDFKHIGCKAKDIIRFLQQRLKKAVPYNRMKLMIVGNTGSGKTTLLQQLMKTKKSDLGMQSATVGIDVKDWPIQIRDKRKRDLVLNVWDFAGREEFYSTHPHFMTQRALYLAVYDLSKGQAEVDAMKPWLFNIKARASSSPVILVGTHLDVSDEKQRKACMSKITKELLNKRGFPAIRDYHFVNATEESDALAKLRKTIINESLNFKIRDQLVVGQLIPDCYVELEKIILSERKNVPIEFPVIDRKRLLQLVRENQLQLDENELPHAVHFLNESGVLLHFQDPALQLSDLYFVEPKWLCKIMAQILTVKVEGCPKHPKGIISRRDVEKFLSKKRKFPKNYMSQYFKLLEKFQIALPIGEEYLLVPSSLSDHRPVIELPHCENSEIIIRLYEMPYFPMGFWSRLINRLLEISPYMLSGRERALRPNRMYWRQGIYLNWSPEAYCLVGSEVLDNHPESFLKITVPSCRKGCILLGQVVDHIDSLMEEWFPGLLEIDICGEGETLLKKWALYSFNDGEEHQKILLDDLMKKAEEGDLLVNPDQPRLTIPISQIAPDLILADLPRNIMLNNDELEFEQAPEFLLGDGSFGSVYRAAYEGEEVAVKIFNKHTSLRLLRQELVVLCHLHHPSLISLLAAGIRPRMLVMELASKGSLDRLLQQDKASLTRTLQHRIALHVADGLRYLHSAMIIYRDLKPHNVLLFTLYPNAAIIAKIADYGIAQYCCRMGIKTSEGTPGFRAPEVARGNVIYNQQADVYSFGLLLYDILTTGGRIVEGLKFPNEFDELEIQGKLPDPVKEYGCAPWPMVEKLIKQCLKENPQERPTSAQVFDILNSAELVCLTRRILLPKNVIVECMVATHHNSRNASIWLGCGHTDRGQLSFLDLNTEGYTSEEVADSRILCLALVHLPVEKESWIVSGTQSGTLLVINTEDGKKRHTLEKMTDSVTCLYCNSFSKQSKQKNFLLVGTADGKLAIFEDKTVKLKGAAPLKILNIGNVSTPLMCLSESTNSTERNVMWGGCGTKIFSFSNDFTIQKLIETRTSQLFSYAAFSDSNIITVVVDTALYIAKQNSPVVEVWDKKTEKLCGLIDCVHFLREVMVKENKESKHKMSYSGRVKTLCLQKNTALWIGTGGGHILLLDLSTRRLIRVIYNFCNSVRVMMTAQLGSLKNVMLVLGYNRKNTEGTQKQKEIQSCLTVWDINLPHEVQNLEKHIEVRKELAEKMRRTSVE

| Molecule | % LRRKtide phosphorylation relative to solvent [1] [%] | Phosphorylation level relative to solvent (%) (cellular pS935 assay) (LRRK2 phospho-Ser935) |
| --- | --- | --- |
| C[S+]([O-])c1ccc(-c2nc(-c3ccncc3)c(-c3ccc(F)cc3)[nH]2)cc1 (centres unmarked) [SB 203580] | 100.48 | 90.32 |
| CCn1cnc2c(Nc3cccc(Cl)c3)nc(N[C@@H]3CCCC[C@@H]3N)nc21 [Cdk1 inhibitor, CGP74514A, CGP74514A] | 3.91 | 83.35 |
| COc1ccc(OC)c2c(=S)c3ccccc3[nH]c12 [Cdk4 inhibitor II, 625987, NSC 625987] | 76.06 | 70.36 |
| O=C1NC(=O)c2c1c1c3ccccc3[nH]c1n1cncc21 [Isogranulatimide] | 4.64 | 77.38 |
| Cc1cccc(-c2[nH]c(C(C)(C)C)nc2-c2ccc3c(c2)OCO3)n1 [TGF-b RI inhibitor III] | 104.37 | 57.95 |
| cFMS receptor tyrosine kinase inhibitor | 110.22 | 60.62 |
| CCCC(=O)Oc1ccc2[nH]c(C(=O)c3cc4ccccc4[nH]3)cc2c1 [PDGF receptor tyrosine kinase inhibitor II] | 93.77 | 65.41 |
| Cc1nc(-c2ccccc2)c(-c2ccncc2)o1 [SC-68376] | 48.07 | 104.03 |
| COC(=O)[C@@]1(O)C[C@H]2O[C@]1(C)n1c3ccccc3c3c4c(c5c6ccccc6n2c5c31)C(=O)NC4 [K-252a, Nocardiopsis sp., K-252a] | 1.13 | 72.18 |
| CO[C@H]1[C@@H](OC)C[C@H](C)[C@@H](OC)C2=CC(=O)C=C(NC(=O)/C(C)=C/C=C\[C@H](OC)[C@@H](OC(N)=O)/C(C)=C/[C@@H]1C)C2=O [Herbimycin A, Streptomyces sp., Herbimycin A] | 103.97 | 92.79 |

Continued, values first:

| % LRRKtide phosphorylation relative to solvent [1] [%] | Phosphorylation level relative to solvent (%) (cellular pS935 assay) (LRRK2 phospho-Ser935) | Molecule |
| --- | --- | --- |
| 81.86 | 69.18 | CC#CC(=O)Nc1cc2c(Nc3ccc(F)c(Cl)c3)ncnc2cn1 [EGFR/ErbB-2/ErbB-4 inhibitor] |
| 13.54 | 122.47 | Nc1cccc(-c2cc3c(Oc4cccc(O)c4)ncnc3[nH]2)c1 [GSK-3b inhibitor XII, TWS119, TWS119] |
| 86.09 | 103.28 | O=c1cc(-c2cccc3c2Sc2ccccc2S3)oc(N2CCOCC2)c1 [ATM kinase inhibitor] |
| 18.59 | 76.44 | CC[n+]1c(/C=C/N(C)c2ccccc2)n(-c2ccccc2)c2ccc(-c3nc4ccccc4s3)cc21.[I-] [Akt inhibitor IV] |
| 60.00 | 97.88 | NC(=O)c1ccc(-c2nc(-c3ccc4c(c3)OCCO4)c(-c3ccccn3)[nH]2)cc1 [Casein kinase I inhibitor, D4476, D4476] |
| 2.32 | 81.52 | O=C1c2ccccc2-c2n[nH]c3cccc1c23 [JNK inhibitor II] |
| 5.76 | 57.20 | PDK1/Akt/Flt dual pathway inhibitor |
| 44.14 | 68.59 | CC(C)(C)n1nc(Cc2cccc3ccccc23)c2c(N)ncnc21 [PP1 analog II, 1NM-PP1, 1NM-PP1] |
| 61.91 | 69.13 | CCN(CC)CCCCN1c2ccccc2Oc2ccc(Cl)cc21 [Akt inhibitor X] |
